Test results as given in patent publication US7803930B2, “Antisense modulation of apolipoprotein B-expression” (Isis Pharmaceuticals, Inc., priority 2002, dated 2010).
In the oligonucleotide strings, read from the 5' end, every base follows the letter of its sugar. An asterisk marks phosphorothioate; unmarked linkages are phosphodiester. Other units and linkages are bracketed, terminal groups are in braces. A string of capitals states the bases alone. e = 2'-O-(2-methoxyethyl) (MOE); [5mC] = 5-methylcytosine; d = 2'-deoxy (DNA)

Test system: rabbit apolipoprotein B mRNA
Assay: Inhibition of rabbit apolipoprotein B mRNA levels in primary rabbit hepatocytes, real-time PCR
Format: cell-based
Design: % INHIB of rabbit apolipoprotein B mRNA levels: concentration or dose not given beside the values
Conditions: for Percent Inhibition of rabbit apolipoprotein B mRNA levels: averages from two experiments
From the text: Primary rabbit hepatocytes were purchased from Invitro Technologies (Gaithersburg, Md.) and maintained in Dulbecco's modified Eagle's medium (Gibco). When purchased, the cells had been seeded into 96-well plates for use in RT-PCR analysis and were confluent.
In accordance with the present invention, a series of oligonucleotides was designed to target different regions of rabbit apolipoprotein B, using published sequences (GenBank accession number X07480.1, incorporated herein as SEQ ID NO: 808, GenBank accession number M17780.1, incorporated herein as SEQ ID NO: 809, and a sequence was derived using previously described primers (Tanaka, Journ. Biol. Chem., 1993,268, 12713-12718) representing an mRNA of the rabbit apolipoprotein B, incorporated herein as SEQ ID NO: 810). “Target site” indicates the first (5′-most) nucleotide number on the particular target sequence to which the oligonucleotide binds. All compounds in Table 21 are chimeric oligonucleotides (“gapmers”) 20 nucleotides in length, composed of a central “gap” region consisting of ten 2′-deoxynucleotides, which is flanked on both sides (5′ and 3′ directions) by five-nucleotide “wings”. The wings are composed of 2′-methoxyethyl (2′-MOE)nucleotides. The internucleoside (backbone) linkages are phosphorothioate (P═S) throughout the oligonucleotide. All cytidine residues are 5-methylcytidines. The compounds were analyzed for their effect on rabbit apolipoprotein B mRNA levels in primary rabbit hepatocytes by quantitative real-time PCR as described in other examples herein. Primary rabbit hepatocytes were treated with 150 nM of the compounds in Table 21. For rabbit apolipoprotein B the PCR primers were: • forward primer: AAGCACCCCCAATGTCACC (SEQ ID NO: 811) • reverse primer: […] (SEQ ID NO: 812) and the PCR probe was: FAM-[…]-TAMRA (SEQ ID NO: 813) where FAM (PE-Applied Biosystems, Foster City, Calif.) is the fluorescent reporter dye) and TAMRA (PE-Applied Biosystems, Foster City, Calif.) is the quencher dye. Data are averages from two experiments. If present, “N.D.” indicates “no data”.
In accordance with the present invention, a subset of the antisense oligonuclotides in Example 42 was further investigated in dose-response studies. Treatment doses were 10, 50, 150 and 300 nM. ISIS 233160 (SEQ ID NO: 824), ISIS 233166 (SEQ ID NO: 830), ISIS 233172 (SEQ ID NO: 835), ISIS 233175 (SEQ ID NO: 838), and ISIS 233183 (SEQ ID NO: 846) were analyzed for their effect on rabbit apolipoprotein B mRNA levels in primary rabbit hepatocytes by quantitative real-time PCR as described in other examples herein.

Substance	% INHIB of rabbit apolipoprotein B mRNA levels [%]	other results
233180 (antisense eA*eA*eG*eA*eT*dG*d[5mC]*dA*dG*dT*dA*d[5mC]*dT*dA*d[5mC]*eT*eT*e[5mC]*e[5mC]*eA) [compound 233180]	13	–
233166 (antisense eG*eG*eA*eT*e[5mC]*dA*d[5mC]*dA*dT*dG*dA*d[5mC]*dT*dG*dA*eA*eT*eG*e[5mC]*eT) [compound 233166]	82	Percent Inhibition of rabbit apolipoprotein B mRNA levels (10 nM): 66%; Percent Inhibition of rabbit apolipoprotein B mRNA levels (50 nM): 81%; Percent Inhibition of rabbit apolipoprotein B mRNA levels (150 nM): 79%; Percent Inhibition of rabbit apolipoprotein B mRNA levels (300 nM): 73%
233178 (antisense eG*eA*eT*eA*eA*d[5mC]*dT*d[5mC]*dT*dG*dT*dG*dA*dG*dG*eG*eT*eA*eG*e[5mC]) [compound 233178]	0	–
233153 (antisense eG*e[5mC]*e[5mC]*eT*eG*dA*dT*dA*d[5mC]*dT*d[5mC]*dA*dG*d[5mC]*dA*e[5mC]*eG*eT*eA*eG) [compound 233153]	0	–
233174 (antisense eT*eG*eT*eG*e[5mC]*dA*d[5mC]*dG*dG*dA*dT*dA*dT*dG*dA*eT*eA*eA*e[5mC]*eG) [compound 233174]	21	–
233188 (antisense eT*eT*eG*eT*eA*d[5mC]*dT*dG*dT*dA*dG*dT*dG*d[5mC]*dA*eT*e[5mC]*eA*eA*eT) [compound 233188]	74	–
233160 (antisense eA*eT*eT*eG*eG*dA*dA*dT*dA*dA*dT*dG*dT*dA*dT*e[5mC]*e[5mC]*eA*eG*eG) [compound 233160]	81	Percent Inhibition of rabbit apolipoprotein B mRNA levels (10 nM): 33%; Percent Inhibition of rabbit apolipoprotein B mRNA levels (50 nM): 67%; Percent Inhibition of rabbit apolipoprotein B mRNA levels (150 nM): 74%; Percent Inhibition of rabbit apolipoprotein B mRNA levels (300 nM): 80%
233167 (antisense eT*e[5mC]*eA*eA*eG*d[5mC]*dT*dG*dG*dT*dT*dG*dT*dT*dG*e[5mC]*eA*e[5mC]*eT*eG) [compound 233167]	28	–
233184 (antisense eT*eA*eA*eA*eG*dT*d[5mC]*d[5mC]*dA*dG*d[5mC]*dA*dT*dT*dG*eG*eT*eA*eT*eT) [compound 233184]	69	–
233185 (antisense e[5mC]*eA*eA*e[5mC]*eA*dA*dT*dG*dT*d[5mC]*dT*dG*dA*dT*dT*eG*eG*eT*eT*eA) [compound 233185]	73	–
233170 (antisense eT*eT*eG*eA*eT*d[5mC]*dT*dA*dT*dA*dA*dT*dA*d[5mC]*dT*eA*eG*e[5mC]*eT*eA) [compound 233170]	23	–
233163 (antisense eA*eT*eT*eG*eT*dG*dA*dG*dT*dG*dG*dA*dG*dA*dT*eA*e[5mC]*eT*eT*e[5mC]) [compound 233163]	80	–
233187 (antisense eT*eG*eA*e[5mC]*eA*dG*dA*dT*dG*dA*dA*dG*dA*dG*dG*eA*eA*eG*eA*eA) [compound 233187]	66	–
233191 (antisense eG*eA*eA*eA*eT*dG*dG*dA*dA*dT*dT*dG*dT*dA*dG*eT*eT*e[5mC]*eT*e[5mC]) [compound 233191]	31	–
233182 (antisense e[5mC]*eT*eT*eG*eA*dT*dA*d[5mC]*dT*dT*dG*dG*dT*dA*dT*e[5mC]*e[5mC]*eA*e[5mC]*eA) [compound 233182]	59	–
233183 (antisense e[5mC]*eA*eG*eT*eG*dT*dA*dA*dT*dG*dA*dT*d[5mC]*dG*dT*eT*eG*eA*eT*eT) [compound 233183]	88	Percent Inhibition of rabbit apolipoprotein B mRNA levels (10 nM): 30%; Percent Inhibition of rabbit apolipoprotein B mRNA levels (50 nM): 71%; Percent Inhibition of rabbit apolipoprotein B mRNA levels (150 nM): 81%; Percent Inhibition of rabbit apolipoprotein B mRNA levels (300 nM): 80%
233152 (antisense eT*e[5mC]*eA*eG*e[5mC]*dA*d[5mC]*dG*dT*dA*dG*d[5mC]*dA*dA*dT*eG*e[5mC]*eA*eT*eT) [compound 233152]	0	–
233151 (antisense eT*eA*eA*eT*e[5mC]*dA*dT*dT*dA*dA*d[5mC]*dT*dT*dG*d[5mC]*eT*eG*eT*eG*eG) [compound 233151]	20	–
233169 (antisense eG*e[5mC]*eT*e[5mC]*eA*dT*dT*d[5mC]*dT*d[5mC]*d[5mC]*dA*dG*d[5mC]*dA*eT*e[5mC]*eA*eG*eG) [compound 233169]	14	–
233157 (antisense eA*eG*eT*eA*eG*dT*dT*dA*dG*dT*dT*dT*d[5mC]*dT*d[5mC]*e[5mC]*eT*eT*eG*eG) [compound 233157]	0	–
233161 (antisense eT*eT*eG*eG*e[5mC]*dA*dT*dT*dA*dT*d[5mC]*d[5mC]*dA*dA*dT*eG*e[5mC]*eA*eG*eT) [compound 233161]	28	–
233149 (antisense eT*eG*e[5mC]*eT*eT*dG*dG*dA*dG*dA*dA*dG*dG*dT*dA*eA*eG*eA*eT*e[5mC]) [compound 233149]	0	–
233186 (antisense eG*eA*eA*eG*eA*dG*dG*dA*dA*dG*dA*dA*dA*dG*dG*eA*eT*eA*eT*eG) [compound 233186]	60	–
233159 (antisense eT*e[5mC]*eA*eG*eT*dG*d[5mC]*d[5mC]*d[5mC]*dA*dA*dG*dA*dT*dG*eT*e[5mC]*eA*eG*e[5mC]) [compound 233159]	0	–
